Measured values as given in BindingDB's records for doi:10.1111/cbdd.12811 (Università di Bari Aldo Moro, 2016).

Assays:
[1] = biological target: ATP-dependent translocase ABCB1 (Homo sapiens, UniProt P08183); experiment: Calcein-AM Assay
Protocol: (§1) MDCK-MDR1 or MDCK-MRP1 cells (50,000 cells per well) were seeded into black CulturePlate (96-well plate) with 100 μL medium and allowed to become confluentovernight. Hundred microliters of test compounds was solubilized in culture medium and added to monolayers. 96/wells plate was incubated at 37 °C for 30 min. Calcein-AM was added in 100 μL of phosphate-buffered saline (PBS) to yield a final concentration of 2.5 μm, and plate was incubated for 30 min. Each well was washed three times with ice-cold PBS.

[2] = biological target: Multidrug resistance-associated protein 1 (Homo sapiens, UniProt P33527); experiment: Calcein-AM Assay
Protocol: as §1

Sequence of Multidrug resistance-associated protein 1 (P33527 whole entry): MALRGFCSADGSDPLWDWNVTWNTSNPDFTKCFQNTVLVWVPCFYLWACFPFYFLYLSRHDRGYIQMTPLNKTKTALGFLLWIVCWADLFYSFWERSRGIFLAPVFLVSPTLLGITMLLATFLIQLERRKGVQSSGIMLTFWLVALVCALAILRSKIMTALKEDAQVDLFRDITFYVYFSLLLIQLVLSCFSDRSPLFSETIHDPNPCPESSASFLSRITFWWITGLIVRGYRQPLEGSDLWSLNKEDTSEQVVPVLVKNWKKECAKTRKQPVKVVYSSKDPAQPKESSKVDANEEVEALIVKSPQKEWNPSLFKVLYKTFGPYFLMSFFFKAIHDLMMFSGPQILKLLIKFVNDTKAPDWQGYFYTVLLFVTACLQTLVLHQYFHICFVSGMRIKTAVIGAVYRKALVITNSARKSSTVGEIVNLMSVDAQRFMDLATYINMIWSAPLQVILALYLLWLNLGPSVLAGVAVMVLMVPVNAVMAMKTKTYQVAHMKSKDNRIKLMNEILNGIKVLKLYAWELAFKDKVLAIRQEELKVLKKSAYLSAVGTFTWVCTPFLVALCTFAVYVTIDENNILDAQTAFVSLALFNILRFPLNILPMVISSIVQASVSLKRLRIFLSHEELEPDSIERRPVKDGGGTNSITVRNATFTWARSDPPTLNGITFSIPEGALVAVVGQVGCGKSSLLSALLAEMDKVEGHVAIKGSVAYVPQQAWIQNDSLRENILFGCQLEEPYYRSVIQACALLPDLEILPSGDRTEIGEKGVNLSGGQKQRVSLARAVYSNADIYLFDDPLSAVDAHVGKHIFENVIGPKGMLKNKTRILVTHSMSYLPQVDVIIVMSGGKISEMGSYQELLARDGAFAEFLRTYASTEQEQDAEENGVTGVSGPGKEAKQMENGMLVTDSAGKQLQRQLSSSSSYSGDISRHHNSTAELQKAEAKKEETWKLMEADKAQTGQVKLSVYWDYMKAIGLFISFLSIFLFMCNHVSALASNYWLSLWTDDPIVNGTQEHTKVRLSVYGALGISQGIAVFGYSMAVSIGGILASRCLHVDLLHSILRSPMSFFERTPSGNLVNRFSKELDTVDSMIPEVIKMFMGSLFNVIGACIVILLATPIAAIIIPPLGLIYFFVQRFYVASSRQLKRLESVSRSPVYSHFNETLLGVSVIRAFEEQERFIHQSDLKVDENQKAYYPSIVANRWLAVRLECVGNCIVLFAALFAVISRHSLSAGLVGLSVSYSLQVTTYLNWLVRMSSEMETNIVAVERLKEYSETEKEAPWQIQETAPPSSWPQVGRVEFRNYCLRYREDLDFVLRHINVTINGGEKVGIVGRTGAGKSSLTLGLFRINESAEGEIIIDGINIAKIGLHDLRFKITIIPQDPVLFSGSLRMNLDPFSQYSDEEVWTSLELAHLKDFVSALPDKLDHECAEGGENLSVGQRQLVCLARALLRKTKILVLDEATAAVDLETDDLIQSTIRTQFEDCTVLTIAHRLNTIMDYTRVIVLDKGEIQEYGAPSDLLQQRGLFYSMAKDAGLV
Sequence of ATP-dependent translocase ABCB1 (P08183 whole entry): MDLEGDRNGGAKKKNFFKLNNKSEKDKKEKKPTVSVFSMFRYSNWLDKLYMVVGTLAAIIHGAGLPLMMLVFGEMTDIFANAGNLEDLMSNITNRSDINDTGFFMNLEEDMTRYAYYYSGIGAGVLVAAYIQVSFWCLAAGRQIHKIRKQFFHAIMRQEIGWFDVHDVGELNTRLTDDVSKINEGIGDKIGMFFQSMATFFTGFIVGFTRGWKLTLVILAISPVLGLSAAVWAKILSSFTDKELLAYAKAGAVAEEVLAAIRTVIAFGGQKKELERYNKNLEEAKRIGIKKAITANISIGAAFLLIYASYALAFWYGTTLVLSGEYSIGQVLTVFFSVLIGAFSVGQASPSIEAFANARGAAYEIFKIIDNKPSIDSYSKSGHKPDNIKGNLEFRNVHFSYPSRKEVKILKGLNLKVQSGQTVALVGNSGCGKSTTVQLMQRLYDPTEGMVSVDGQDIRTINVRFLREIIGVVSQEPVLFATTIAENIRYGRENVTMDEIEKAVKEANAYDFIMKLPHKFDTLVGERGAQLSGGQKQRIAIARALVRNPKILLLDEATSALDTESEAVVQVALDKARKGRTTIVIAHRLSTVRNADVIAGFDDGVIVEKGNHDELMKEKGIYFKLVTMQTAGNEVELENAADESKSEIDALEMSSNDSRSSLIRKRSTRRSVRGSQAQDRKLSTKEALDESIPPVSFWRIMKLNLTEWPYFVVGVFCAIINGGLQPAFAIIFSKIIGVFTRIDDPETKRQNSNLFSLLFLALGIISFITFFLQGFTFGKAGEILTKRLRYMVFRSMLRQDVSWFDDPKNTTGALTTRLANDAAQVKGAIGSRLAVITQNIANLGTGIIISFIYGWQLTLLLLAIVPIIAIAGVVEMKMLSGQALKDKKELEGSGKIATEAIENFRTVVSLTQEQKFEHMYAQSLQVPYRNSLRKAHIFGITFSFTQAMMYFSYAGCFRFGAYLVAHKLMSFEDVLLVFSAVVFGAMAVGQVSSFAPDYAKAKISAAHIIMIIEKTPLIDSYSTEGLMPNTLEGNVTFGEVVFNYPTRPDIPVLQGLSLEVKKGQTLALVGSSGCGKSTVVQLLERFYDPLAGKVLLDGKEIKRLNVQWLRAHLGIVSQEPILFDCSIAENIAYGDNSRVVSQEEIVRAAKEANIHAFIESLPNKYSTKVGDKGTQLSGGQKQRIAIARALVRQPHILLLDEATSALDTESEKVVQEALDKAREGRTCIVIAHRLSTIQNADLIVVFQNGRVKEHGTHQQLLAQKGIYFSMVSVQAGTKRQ

Row | Structure (SMILES) | IC50 [1] [µM] | IC50 [2] [µM]
1 | COc1cc(C(=O)Nc2ccc(Br)cc2)cc(OC)c1OC | 27 | –
2 | COc1ccccc1NC(=O)c1ccc(OC)c(OC)c1OC [2,3,4-Trimethoxy-N-(2-methoxy-phenyl)-benzamide (15)] | 30.4 | 71
3 | COc1ccc(C(=O)Nc2ccccc2)c(OC)c1OC [2,3,4-Trimethoxy-N-phenyl-benzamide (7)] | > 100 | > 100
4 | COc1ccccc1NC(=O)c1cc(OC)c(OC)cc1OC [2,4,5-Trimethoxy-N-(2-methoxy-phenyl)-benzamide (14)] | 3.52 | > 100
5 | COc1cc(OC)c(C(=O)Nc2ccccc2)cc1OC [2,4,5-Trimethoxy-N-phenyl-benzamide (6)] | 21.9 | > 100
6 | COc1cc(OC)c(C(=O)Nc2ccccc2OC)c(OC)c1 [2,4,6-Trimethoxy-N-(2-methoxy-phenyl)-benzamide (16)] | 47.6 | > 100
7 | COc1cc(OC)c(C(=O)Nc2ccccc2)c(OC)c1 [2,4,6-Trimethoxy-N-phenyl-benzamide (8)] | > 100 | > 100
8 | COc1ccccc1NC(=O)c1cc(OC)c(OC)c(OC)c1 [3,4,5-Trimethoxy-N-(2-methoxy-phenyl)-benzamide (13)] | 26.2 | > 100
9 | COc1cc(C(=O)Nc2ccccc2)cc(OC)c1OC [3,4,5-trimethoxy-N-phenylbenzamide (5)] | 70.7 | > 100
10 | COc1ccc(C(=O)Nc2ccc(Br)cc2)c(OC)c1OC [N-(4-Bromo-phenyl)-2,3,4-trimethoxy-benzamide (11)] | 19.4 | > 100
11 | COc1cc(OC)c(C(=O)Nc2ccc(Br)cc2)cc1OC [N-(4-Bromo-phenyl)-2,4,5-trimethoxy-benzamide (10)] | 9.27 | > 100
12 | COc1cc(OC)c(C(=O)Nc2ccc(Br)cc2)c(OC)c1 [N-(4-Bromo-phenyl)-2,4,6-trimethoxy-benzamide (12)] | 76.2 | > 100
